Reference: patent US20120119081A1, “INSECT-BASED MODEL FOR PHARMACO-KINETIC STUDIES” (priority 2009, published 2012)

Assays:
[1] = Locust hemolymph kinetics after injection into the hemolymph (LCMS)
Procedure: The insects may be obtained from local suppliers or bred in house. The grasshoppers were reared under crowded conditions at 28° C. and a 12:12 dark:light photocycle and fed fresh grass and bran. Before experiments the grasshoppers were fed ecologically cultivated wheat for two weeks. Animals used are adult males (in some experiments females) between two to four weeks after adult emergence. Test compounds are administrated into the hemolymph by use of a Hamilton syringe and inserting the needle between two abdominal terga or administered intraintestinal by use of a catheter or a steel probe. At various time points after administration hemolymph samples are taken for quantitative determination of drug concentration in the hemolymph. The samples are snap-frozen and stored until analyses. Drug concentration is analysed by HPLC, LC/MSMS or other methods. In studies of drug retention various organs e.g. heart, fat bodies and brain are dissected at various times after drug administration. The tissues are washed, snap-frozen and stored until analyses. At analyses the tissues are homogenized/vortexed/sonicated and centrifuged. The drug concentration in the tissues is determined as above.
(§1) 40 ul of an approximately 5 mg/ml solution of quinidine was injected into the hemolymph of Locusts (Locusta migratoria). The test compound was administered by using a Hamilton syringe. At 5, 15, 45, 120, and 360 minutes after administration (10 ul) hemolymph was collected from each locust with a calibrated capillary tube by puncturing the ventral membrane between the head and the thorax and immediately blown into a tube containing 40 ul aqua dest and 100 ul of acetonitrile. Each sample was centrifuged for 5 minutes (10 000 g at 4° C.) and 100 ul of the supernatants were transferred to new test tubes for LCMS analysis.
as §1, with “The” for “40 ul of an approximately 5 mg/ml solution of quinidine was injected into the hemolymph of Locusts (Locusta migratoria). The”, “000g” for “000 g”
as §1, with “caffeine” for “quinidine”, “000g” for “000 g”
as §1, with “The” for “40 ul of an approximately 5 mg/ml solution of quinidine was injected into the hemolymph of Locusts (Locusta migratoria). The”, “000g” for “000 g”
Mianserin was injected into the hemolymph of Locusts (Locusta migratoria). The administered volume was 40 ul (administered by using a Hamilton syringe) at a concentration of 8.8 mg/ml. At 5, 15 and 45 minutes after administration (2×20 ul) hemolymph was collected from the locusts with a calibrated capillary tube by puncturing the ventral membrane between the head and the thorax and immediately blown into a tube containing 60 ul aqua dest and 200 ul of acetonitrile.

[2] = cited from earlier work
[3] = cited from earlier work; for Volume of distribution (in words): human / vertebrate, relative statement
[4] = Locusta migratoria, in vivo, 0.4 mg per locust (approximately)
[5] = Locusta migratoria, in vivo, 0.2 mg per locust (approximately)
[6] = locust, after intrahemolymphic administration, comparison between test compounds

SMILES | concentration at 5 min [1, 4] | concentration at 15 min [1, 4] | concentration at 45 min [1, 4] | Volume of distribution (in words) [3] | Hemolymph elimination / clearance (in words) [1, 6] | also measured
CN(C)C(=O)C(CCN1CCC(O)(c2ccc(Cl)cc2)CC1)(c1ccccc1)c1ccccc1 [loperamide] | 5600 ng/mL | 3000 ng/mL | 1700 ng/mL | – | – | Solubility (in words) [2]: less soluble
CC(C)NCC(O)COc1cccc2ccccc12 (stereo not drawn) [propranolol] | – | – | – | much larger volume of distribution | – | Half life (in words) ([3]; human, compared to atenolol): much shorter half life
O=c1n(CCCN2CCN(c3cccc(Cl)c3)CC2)nc2ccccn12 [trazodone] | – | – | – | – | – | Hemolymph elimination / clearance (in words) ([1]; in vivo): stable for 15 minutes
Cn1c(=O)c2c(ncn2C)n(C)c1=O [caffeine] | 29000 ng/mL | 24000 ng/mL | 23000 ng/mL | much lower volume of distribution compared to propranolol | non dose dependent hemolymph clearance | concentration at 5 min [1, 5]: 9280 ng/mL; concentration at 15 min [1, 5]: 9010 ng/mL; concentration at 45 min [1, 5]: 8780 ng/mL; concentration at 120 min [1, 5]: 6820 ng/mL; concentration at 360 min [1, 5]: 5500 ng/mL
O=C1CC2(CCCC2)CC(=O)N1CCCCN1CCN(c2ncccn2)CC1 [buspirone] | 10700 ng/mL | 6500 ng/mL | 3800 ng/mL | – | increased elimination similar to haloperidol | –
